Experimental data as given in publication PMC5059489, “Mechanistic evaluation and transcriptional signature of a glutathione S-transferase omega 1 inhibitor” (Nature Communications, 2016).
Several values for one entry are separate records, joined by “and”; a condition that tells them apart may be missing. Equal values may be shown once.

Legend:
HCT116p53+/+ cell = assay: MTT cell proliferation at single concentration; assay type: cell-based, human
Experimental: Cell proliferation was assessed by a MTT assay. Cancer cells were seeded in 96-well microtitre plates and, after overnight attachment, treated with GSTO1 inhibitors. After 72 h, MTT solution (3 mg ml^−1; 20 μl) was added to each well and cells were incubated for 3 h at 37 °C. After incubation, media from each well was removed and the dark blue formazan crystals formed by live cells were dissolved in DMSO (150 μl per well). The absorbance intensity was measured at 570 nm on a microplate reader (Molecular Devices, Sunnyvale, CA, USA). Cell viability after 24 h treatment was assessed using ApoTox-Glo triplex assay (Promega) according to the manufacturer's protocol. At least three independent dose–response experiments with each concentration tested in triplicate were performed for each cell line.

GSTO1 [1] = molecular target: T1, GSTO1 (Homo sapiens, UniProt P78417); assay: GSTO1 substrate assay (reduction of 4-NPG); settings: for IC50: read-out: GSTO substrate assay IC50, cluster screening tables
T1 sequence (P78417 1-241): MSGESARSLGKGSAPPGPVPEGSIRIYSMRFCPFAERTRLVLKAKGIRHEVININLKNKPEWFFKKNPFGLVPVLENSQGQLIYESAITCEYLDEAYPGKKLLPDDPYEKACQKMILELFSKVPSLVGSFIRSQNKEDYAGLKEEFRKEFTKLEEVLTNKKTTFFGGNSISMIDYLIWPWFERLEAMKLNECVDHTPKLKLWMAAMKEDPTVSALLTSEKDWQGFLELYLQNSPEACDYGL
Experimental: For activity screening, we adapted a GSTO1 substrate assay that relies on the quantification of the reduction of S-(4-nitrophenacyl)glutathione (4-NPG), a GSTO1-specific substrate[17], using recombinant human GSTO1 in a high-throughput screening format.
Enzyme activity was measured by monitoring the reduction of 4-NPG to 4-nitroacetophenone by GSTO1.

GSTO1 [2] = molecular target: T1, GSTO1; assay: In-gel fluorescence competitive CMFDA binding assay, recombinant GSTO1; settings: inhibition of CMFDA binding
Excerpt: (§1) Primary screening of GSTO inhibitors was based on competitive inhibition of CMFDA binding to endogenous GSTO. Briefly, HCT116^p53+/+ cells (4 × 10^4 per well) were coated in a 12-well plate. […] Cells were then washed with PBS and lysed using Cell Lytic M buffer (Sigma). […] Gels were immediately scanned on a Typhoon variable mode imager (Amersham Bioscience). Quantification of fluorescent band intensity was done using Image Quant 5.2 software.

endogenous GSTO1 = molecular target: T2, endogenous GSTO1 (Homo sapiens, UniProt P78417); assay: In-gel fluorescence competitive CMFDA binding assay, endogenous GSTO1 in HCT116; settings: 10 µM; inhibition of CMFDA binding, HCT116
T2 sequence (P78417 1-241): T1 sequence (P78417 1-241)
Excerpt: as §1

GSTO substrate assay % Inhibition at 10 µM (GSTO1 [1]) [%]	GSTO binding assay (% Inhibition at 10 µM) Recombinant (GSTO1 [2]) [%]	GSTO binding assay (% Inhibition at 10 µM) Endogenous (endogenous GSTO1) [%]	IC50 (GSTO1 [1]) [nM]	SMILES	% Inhibition of HCT116p53+/+ cell proliferation at 10 µM (HCT116p53+/+ cell)
-3.5	-4.1	-11.7	–	O=C(CCl)NNC(=O)c1cc2c(s1)CCCC2 [C3-23]	3.7%
31.1	51.4	48.9	–	Cc1cc(S(=O)(=O)N(C)C)cc(NC(=O)CCl)c1C [C1-26]	13.2%
73.0	46.7	88.9	–	CC(NC(=O)CCl)c1cc2ccccc2o1 (stereo not drawn) [C3-29]	89.7%
2.4	82.7	61.7	–	O=C(CCl)N1CCN(S(=O)(=O)C=Cc2ccccc2)CC1 [C5-16]	48.3% and 46.5%
87.8	49.2	46.7	–	Cc1cc(NC(=O)CCl)ccc1N1CCCC1 [C1-16]	41.9%
41.0	13.5	33.4	–	O=C(CCl)N1CCN(c2ccc(O)cc2)CC1 [C5-4]	81.9% and 84.4%
82.4	36.2	57.1	–	O=C(CCl)NCC(=O)Nc1ccc(F)c(F)c1 [C3-25]	64.5% and 67.8%
78.6	50.9	41.7	–	O=C(CCl)NCCC12CC3CC(CC(C3)C1)C2 [C3-34]	-2.4%
98.1	61.1	66.2	156	N#Cc1ccccc1S(=O)(=O)N1CCN(C(=O)CCl)CC1 [C5-13]	81.1% and 55.9%
42.7	3.9	32.9	–	CC(C)(C)c1ccc(C(=O)NNC(=O)CCl)cc1 [C3-20]	29.1%
68.3	59.8	55.8	411	O=C(CCl)N1CCN(Cc2ccc(Br)s2)CC1 [C5-10]	71.5% and 90.4%
3.8	39.2	51.7	–	CCOC(=O)c1cc(C(C)C)sc1NC(=O)CCl [C2-8]	4.5% and 0.8%
1.8	-36.4	53.0	–	CN(CC(=O)Nc1c(Cl)cccc1Cl)C(=O)CCl [C4-7]	81.8%
83.1	23.7	45.4	–	CN(CCCNC(=O)CCl)c1ccccc1 [C3-16]	28.7%
5.7	57.7	62.9	–	N#CC(c1cccs1)N1CCN(C(=O)CCl)CC1 (stereo not drawn) [C5-11]	19.6%
16.5	-4.9	33.4	–	CC(C)C(NC(=O)CCl)c1ccc2c(c1)OCCO2 (stereo not drawn) [C3-8]	91.2% and 77.9%
86.4	63.3	63.6	1480	CCN(CC)S(=O)(=O)c1ccc(CNC(=O)CCl)cc1 [C3-2]	55.3% and 49.6%
83.7	62.3	52.8	381	O=C(CCl)N1CCN(Cc2cccc3ccccc23)CC1 [C5-9]	68.4% and 79.3%
78.6	44.2	51.5	–	COc1ccc(N2CCN(C(=O)CCl)CC2)cc1 [C5-5]	-16.3%
36.3	16.6	55.3	–	CC(NC(=O)CCl)C12CC3CC(CC(C3)C1)C2 (stereo not drawn) [C3-33]	24.7% and 38.5%
84.9	66.0	47.1	–	Cc1ccc(C)c(S(=O)(=O)N2CCN(C(=O)CCl)CC2)c1 [C5-12]	7.3%
10.4	26.5	40.1	–	O=C(CCl)Nc1cc2c(cc1Cl)C(=O)c1ccccc1C2=O [C1-12]	85%
81.7	-4.7	-29.3	–	CN(CC(=O)N1CCOCC1)C(=O)CCl [C4-12]	91.1% and 92.6%
40.0	72.2	–	–	O=C(CCl)N1CCc2cc([N+](=O)[O-])ccc21 [C5-19]	84.6% and 75.2%
72.7	69.7	–	164	CN(C)S(=O)(=O)c1ccc2c(c1)CCCN2C(=O)CCl [C5-18]	91.6% and 91.4%
-2.8	59.5	–	–	Cc1ccc(-c2oc(NC(=O)CCl)c(C#N)c2-c2ccc(C)cc2)cc1 [C2-28]	88.5%
70.2	69.3	–	902	C=CCOc1ccccc1CN(C(=O)CCl)c1ccc2c(c1)OCCO2 [C4-17]	29%

SMILES	GSTO substrate assay % Inhibition at 10 µM (GSTO1 [1]) [%]	GSTO binding assay (% Inhibition at 10 µM) Recombinant (GSTO1 [2]) [%]	GSTO binding assay (% Inhibition at 10 µM) Endogenous (endogenous GSTO1) [%]	IC50 (GSTO1 [1]) [nM]	% Inhibition of HCT116p53+/+ cell proliferation at 10 µM (HCT116p53+/+ cell)
CCN1CCN(c2ccc(NC(=O)CCl)cc2)CC1 [C1-20]	66.9	-8.5	-15.1	–	43.7% and 39%
